Source: US9365618B2, “Synthetic peptide that induces expression of TNF receptor 2 and use thereof” (TOAGOSEI CO. LTD., priority 2011, dated 2016)
Where no end group is shown, it is not given here.

Test system: TNFR2
Assay: TNFR2 expression-inducing activity against neuroblasts (neuro-2a, fluorescent antibody technique)
Type: cell-based, mouse
Details: retinoic acid-differentiated neuro-2a cells, peptide 5 μM, two days incubation, control group set as 1
Procedure: With respect to each sample obtained in Example 1, the TNFR2 expression-inducing activity was tested against neuroblasts. The control group was supplied with no peptides. The test details are described below.
As the cells under test, a cell line (neuro-2a) established from a commercial mouse neuroblastoma was used. The cells were cultured beforehand in a DMEM medium (i.e., a Dulbecco MEM (DMEM medium, a Gibco product) containing 10% fetal bovine serum (FBS, a Gibco product), 2 mM of L-glutamine, 50 unit/mL of penicillin, and 50 μg/mL of streptomycin), and the number of cells per well in a 96-hole(well) plate was adjusted to approximately 5×10^3. The volume of the medium here was 100 μL/well. […]
Subsequently, the stock solution of one of the samples was added to the wells for each sample group to a peptide concentration in each well of 5 μM. […] After samples (synthetic peptides) were added as described above and continuously incubated further for two days, the expression/induction of TNFR1 and TNFR2 was evaluated according to the fluorescent antibody technique in the same manner as Example 2.
With the level of TNFR1 expression (i.e. fluorescence intensity) of the control group set as 1, relative values are shown. […] With the level of TNFR2 expression (i.e. fluorescence intensity) of the control group set as 1, relative values are shown.

Sequence: KKRTLRKNDRKKR (KKRTLRKNDRKKR-NH2; listed as Homo sapiens) [Sample 17, NoLS of human LIMK2]
- TNFR2 expression level (relative fluorescence intensity): at least 1.9
